Experimental data published in patent US11905260B1, “N′-(1-naphthoyloxy)-2-(benzo[d]oxazol-2-yl)acetimidamide as an antimicrobial compound” (KING FAISAL UNIVERSITY, priority 2023, dated 2024).

Key:
Escherichia coli = assay: agar plate disc-diffusion, antibacterial activity by inhibition zone; type: cell-based; conditions: nutrient agar, 37° C., 48 hours
Method: (§1) The agar plate disc-diffusion method was applied. […] The discs were then placed onto the surface of agar plates (nutrient agar for bacteria and Sabouraud's dextrose agar for fungi) seeded with the test organism. Each plate contained 15 mL of the agar medium, previously seeded with 0.2 mL of the broth culture of each organism pregrown for 18 hours. The plates were incubated at 37° C. for 48 hours, and 72 hours for fungi. The inhibition zones was measured in mm. Discs impregnated with DMSO were used as a control, and its inhibition zone was subtracted from the tested compound actual inhibition zone.

Staphylococcus aureus = assay: as above; type: cell-based; conditions: nutrient agar, 37° C., 48 hours
Method: as §1

Pseudomonas aeruginosa = assay: as above; type: cell-based; conditions: nutrient agar, 37° C., 48 hours
Method: as §1

Bacillus cereus = assay: as above; type: cell-based; conditions: nutrient agar, 37° C., 48 hours
Method: as §1

different microbes = assay: antimicrobial activity, overall statement; type: cell-based; conditions: summary in words
Method: The agar plate disc-diffusion method was applied. Sterilized filter papers (6 mm in diameter) were wetted with 10 μL of a solution N′-(1-naphthoyloxy)-2-(benzo[d]oxazol-2-yl)acetimidamide (3) to be tested, containing 10 mg/mL in DMSO, and the discs were allowed to air dry. The discs were then placed onto the surface of agar plates (nutrient agar for bacteria and Sabouraud's dextrose agar for fungi) seeded with the test organism. Each plate contained 15 mL of the agar medium, previously seeded with 0.2 mL of the broth culture of each organism pregrown for 18 hours. The plates were incubated at 37° C. for 48 hours, and 72 hours for fungi. The inhibition zones was measured in mm. Discs impregnated with DMSO were used as a control, and its inhibition zone was subtracted from the tested compound actual inhibition zone.

[1] = tested on: Chrysosporium keratinophilum; assay: agar plate disc-diffusion, antifungal activity by inhibition zone; type: cell-based; conditions: Sabouraud's dextrose agar, 72 hours
Method: as §1

Aspergillus flavus = assay: as above; type: cell-based; conditions: Sabouraud's dextrose agar, 72 hours
Method: as §1

[2] = A = concentration of comp. = 10,000 μL
[3] = B = concentration of comp. = 30,000 μL
[4] = C = concentration of comp. = 50,000 μL

N/C(Cc1nc2ccccc2o1)=N\OC(=O)c1cccc2ccccc12 [compound 3, N′-(1-naphthoyloxy)-2-(benzo[d]oxazol-2-yl)acetimidamide]
melting point: 131 to 132 °C
inhibition zone, Escherichia coli (Escherichia coli; [2]): 27 mm
inhibition zone, Escherichia coli (Escherichia coli; [3]): 34 mm
inhibition zone, Escherichia coli (Escherichia coli; [4]): 51 mm
inhibition zone, Staphylococcus aureus (Staphylococcus aureus; [2]): 26 mm
inhibition zone, Staphylococcus aureus (Staphylococcus aureus; [3]): 30 mm
inhibition zone, Staphylococcus aureus (Staphylococcus aureus; [4]): 38 mm
inhibition zone, Pseudomonas aeruginosa (Pseudomonas aeruginosa; [2]): 22 mm
inhibition zone, Pseudomonas aeruginosa (Pseudomonas aeruginosa; [3]): 24 mm
inhibition zone, Pseudomonas aeruginosa (Pseudomonas aeruginosa; [4]): 38 mm
inhibition zone, Bacillus Cereus (Bacillus cereus; [2]): 23 mm
inhibition zone, Bacillus Cereus (Bacillus cereus; [3]): 27 mm
inhibition zone, Bacillus Cereus (Bacillus cereus; [4]): 36 mm
antimicrobial activities against different microbes (different microbes): excellent antimicrobial activities
inhibition zone, Chrysosporium keratinophilum [1, 2]: 27 mm
inhibition zone, Chrysosporium keratinophilum [1, 3]: 30 mm
inhibition zone, Chrysosporium keratinophilum [1, 4]: 51 mm
inhibition zone, Aspergillus flavus (Aspergillus flavus; [2]): 24 mm
inhibition zone, Aspergillus flavus (Aspergillus flavus; [3]): 26 mm
inhibition zone, Aspergillus flavus (Aspergillus flavus; C =): 37 mm
